In US20150140059A1 (The Regents of the University of California, priority 2012, published 2015):
Read-outs that look alike come from different tables or passages of the source.

What was measured:
[1] = system: C3H10T1/2 embryonic fibroblast cells; type: cell-based, mouse; conditions: C3H cells, 4 days; for EC50: whole cell extracts, read-out: EC50 for inducing ALP activity
Procedure: (§1) For direct comparison to Oxy133, C3H cells were also treated with Oxy34 and Oxy49 (FIG. 2A). After 4 days, alkaline phosphatase (ALP) activity was measured in whole cell extracts.
(§2) Cells at confluence were treated with vehicle, Oxy133 or Oxy149. After 4 days, alkaline phosphatase (ALP) activity was measured in whole cell extracts.
(§3) Alkaline phosphatase (ALP) activity assay on whole cell extracts (13,14), and von Kossa staining of cell monolayers for mineralization (16) were performed as previously described.

[2] = system: M2-10B4 bone marrow stromal cells; assay: Alkaline phosphatase (ALP) activity assay in M2-10B4 cells; type: cell-based, mouse
Procedure: as §1, §2, §3

Lewis rats [3] = conditions: prior studies (ref. 15); cited from earlier work
Lewis rats [4] = assay: Rat posterolateral intertransverse process spinal fusion at L4-L5; type: in vivo; conditions: for Fusion Rates, Manual Palpation / Fusion Rates, Micro-CT / Fusion Rates, X-ray: at sacrifice (8 weeks); for bilateral fusion on radiographs (animals): four weeks; for Fusion Mass Bone Volume / Fusion Mass Bone Volume to Tissue Volume / Fusion Mass Total Tissue Volume / Fusion Mass Trabecular Separation / trabecular thickness per footnote: micro-CT
Procedure: Thirty-eight 8-week-old male Lewis rats were purchased from Charles River Laboratories (Wilmington, Mass.) and were maintained and housed at the UCLA vivarium in accordance with regulations set forth by the UCLA Office of Protection of Research Subjects. The study was performed under a protocol approved by the UCLA Animal Research Committee (ARC).
Animals were pre-medicated with sustained release buprenorphine thirty minutes prior to surgery and anesthetized with 2% isoflurane administered in oxygen (1 L/min). The surgical site was shaved and disinfected with Betadine and 70% ethanol. Posterolateral intertransverse process spinal fusion at L4-L5 was performed as in prior studies (21,22). The L6 vertebral body was identified using the iliac crest as a landmark. A 4-cm longitudinal midline incision was made through the skin and subcutaneous tissue over L4-L5 down to the lumbodorsal fascia. A 2-cm longitudinal paramedial incision was then made in the paraspinal muscles bilaterally to expose the transverse processes of L4-L5, which were decorticated with a high-speed burr. […] The implants were then covered with the overlying paraspinal muscles and the lumbodorsal fascia and skin were closed with 4-0 Prolene sutures (Ethicon, Inc., Somerville, N.J.). Animals were allowed to ambulate, eat, and drink ad libitum immediately after surgery.
Posteroanterior radiographs of the lumbar spine were taken on each animal at 4, 6, and 8 weeks after surgery using a Faxitron LX60 cabinet radiography system and evaluated blindly by two independent observers employing the following standardized scale: 0, no fusion; 1, unilateral fusion; and 2, complete bilateral fusion. The scores from the observers were added together and only a score of 4 was considered as complete fusion.
Eight weeks after surgery, animals were euthanized and the spines were surgically removed and evaluated by two blinded independent observers for motion between levels. Nonunion was recorded if motion was observed between the facets or transverse processes on either side. Complete fusion was recorded if no motion was observed bilaterally. Spines were scored as either fused or not fused. Unanimous agreement was required to consider complete fusion.
Each removed spine was analyzed by high resolution micro-computed tomography (micro-CT), using a SkyScan 1172 scanner (SkyScan, Belgium) with a voxel isotropic resolution of 20 μm and an X-ray energy of 55 kVp and […] to further assess the fusion rate and observe the fusion mass as we have previously reported (15). Three hundred and sixty projections were acquired over an angular range of 180° with steps of 0.5 with an exposure time of 220 msec/slice. Five frames were averaged at each rotation step to get better signal to noise ratio. A 0.5 mm aluminum filter was used to narrow down the X-ray beam frequency in order to minimize beam hardening artifact. Virtual image slices were reconstructed using the cone-beam reconstruction software version 2.6 based on the Feldkamp algorithm (SkyScan). These settings produced serial cross-sectional 1024×1024 pixel images. Sample re-orientation and 2D visualization were performed using DataViewer (SkyScan). 3D visualization was performed using Dolphin Imaging version 11 (Dolphin Imaging & Management Solutions, Chatsworth, Calif.). Fusion was defined as the bilateral presence of bridging bone between the L4 and L5 transverse processes. The reconstructed images were judged to be fused or not fused by two experienced independent observers. To quantify the density of bone formed within each fusion mass, the tissue volume of the mass (TV), trabecular bone volume within the mass (BV), BV/TV ratio, trabecular thickness, and trabecular separation were calculated. This was performed using DataViewer software with measurements across 501 axial slices (20 um per slice, 10.02 mm length) within each fusion mass, centered at the level of the intervertebral body of L4-5.

[5] = system: primary human mesenchymal stem cells; assay: Osteogenic gene expression by quantitative RT-PCR in primary human MSC; type: cell-based; conditions: 5 μM
From the text: (La Jolla, Calif.). […] Human primers sequences were: […] ID NO:1) and 3'-[NT] (SEQ ID NO:2), BSP 5'-[NT] ID NO:3) and 3'-[NT] ID NO:4), […] ID NO:5) and 3'-[NT]

[6] = system: 8X-Gli luciferase reporter (Hedgehog pathway); type: cell-based, mouse; conditions: C3H cells, 48 hours
Procedure: (§4) After 4 days ALP activity, and after 7 days the expression of osteogenic genes ALP, BSP, and OSX was measured by quantitative real-time PCR (p<0.001 for control vs. Oxy133, and for Oxy133 vs. Oxy133+Cyc for ALP activity and for the expression of all genes shown). […] (p<0.001 for control vs. Oxy133 at 100 nM, 250 nM, and 1 μM Oxy133). (FIG. 4C) The amount of YFP-Smo captured by 20S beads or control beads was compared in samples containing either no competitor or 50 μM of a free competitor sterol (20S, Oxy133 or Oxy16). The YFP-Smo captured by the beads was measured by Western blot (top) and plotted (bottom) relative to the amount captured in the binding reaction with no competitor.
Cells at 70% confluence in 24-well plates were transiently transfected with Gli-dependent firefly luciferase and Renilla luciferase vectors as we have previously described (17,18). […] Luciferase activity was assessed using the Dual Luciferase Reporter Assay System (Promega Corporation, Madison, Wis.) according to manufacturer's instructions after cells were treated for 48 hours.

Smoothened (YFP-Smo) = molecular target: T1, Smoothened (YFP-Smo) (Mus musculus, UniProt P56726); assay: YFP-Smo capture by 20S-beads, competition with free sterol; type: binding; conditions: 50 μM free competitor sterol, Western blot, semi-quantitative
T1 construct: expressed in transfected cells
Procedure: as §4
We previously reported that 20S selectively activates Hh signaling by binding to the Smo receptor (19). To determine whether Oxy133 activates Hh signaling by the same mechanism, we tested the ability of Oxy133 to compete for YFP-tagged Smo (YFP-Smo) binding with a 20S analogue coupled to magnetic beads. As we previously reported, this analogue, nat-20S-yne, contains an alkyne moiety on the iso-octyl chain, allowing for click chemistry-mediated coupling to magnetic beads (20S-beads) (19). Using these beads for sterol-binding assays, the amount of YFP-Smo remaining on the beads relative to a no-competitor sample is measured by Western blotting. […]

T1 sequence (P56726 33-793): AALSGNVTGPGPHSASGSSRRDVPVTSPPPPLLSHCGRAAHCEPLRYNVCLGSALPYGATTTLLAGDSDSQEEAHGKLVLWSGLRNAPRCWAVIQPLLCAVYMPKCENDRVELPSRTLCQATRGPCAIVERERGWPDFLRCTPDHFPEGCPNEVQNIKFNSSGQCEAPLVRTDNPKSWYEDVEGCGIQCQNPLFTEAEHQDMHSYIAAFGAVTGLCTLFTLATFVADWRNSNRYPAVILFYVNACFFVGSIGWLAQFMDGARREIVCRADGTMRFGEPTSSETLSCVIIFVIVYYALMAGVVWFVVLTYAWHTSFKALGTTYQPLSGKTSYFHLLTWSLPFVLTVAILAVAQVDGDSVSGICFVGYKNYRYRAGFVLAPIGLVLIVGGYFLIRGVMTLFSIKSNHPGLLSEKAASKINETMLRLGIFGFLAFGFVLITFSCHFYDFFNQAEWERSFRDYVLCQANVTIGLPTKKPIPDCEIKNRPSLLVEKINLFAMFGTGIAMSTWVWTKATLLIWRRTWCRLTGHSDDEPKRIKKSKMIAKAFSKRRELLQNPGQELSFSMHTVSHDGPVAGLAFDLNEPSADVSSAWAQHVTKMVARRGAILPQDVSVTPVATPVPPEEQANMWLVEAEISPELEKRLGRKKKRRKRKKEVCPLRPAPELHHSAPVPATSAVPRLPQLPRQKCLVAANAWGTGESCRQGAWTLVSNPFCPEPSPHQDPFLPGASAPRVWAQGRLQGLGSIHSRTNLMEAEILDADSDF

CC1=C2C[C@H]3[C@@H](CC=C4C[C@@H](O)CC[C@@]43C)[C@@H]2CC[C@]12O[C@@H]1C[C@H](C)CN[C@H]1[C@H]2C [Cyclopamine, reference compound]
inhibition of Oxy133-induced ALP activity ([1]; 4 μM cyclopamine): completely inhibited | inhibition of Oxy133-induced ALP activity and osteogenic marker expression ([2]; M2 cells (data not shown)): completely inhibited

CC(C)CCCC(C)(O)C1CCC2C3CC(O)C4CC(O)CCC4(C)C3CCC21C (stereo not shown) [Oxy34]
EC50 [1]: 800 nM | fusion at the 4 week time point (Lewis rats [3]): no fusion was observed

C=C(C)CCC[C@](C)(O)[C@H]1CC[C@H]2[C@@H]3C[C@H](O)[C@H]4C[C@@H](O)CC[C@]4(C)[C@H]3CC[C@@]21C [Oxy49]
EC50 [1]: 900 nM | fusion at the 4 week time point (Lewis rats [3]): no fusion was observed

CCCCCC[C@](C)(O)[C@H]1CC[C@H]2[C@@H]3C[C@H](O)[C@H]4C[C@@H](O)CC[C@]4(C)[C@H]3CC[C@@]21C [Oxy133, (3S,5S,6S,8R,9S,10R,13S,14S,17S)-17-((S)-2-hydroxyoctan-2-yl)-10,13-dimethylhexadecahydro-1H-cyclopenta[a]phenanthrene-3,6-diol]
Fusion Rates, Manual Palpation (Lewis rats [4]; 0.2 mg): 0% | Fusion Rates, Micro-CT (Lewis rats [4]; 0.2 mg): 0% | Fusion Rates, X-ray (Lewis rats [4]; 0.2 mg): 0% | bilateral fusion, manual palpation (animals) (Lewis rats [4]; 2 mg, 8 weeks): 4/8 | bilateral fusion, micro-CT (animals) (Lewis rats [4]; 2 mg, 8 weeks): 4/8 | Fusion Rates, Manual Palpation (Lewis rats [4]; 2 mg): 50% | Fusion Rates, Micro-CT (Lewis rats [4]; 2 mg): 50% | Fusion Rates, X-ray (Lewis rats [4]; 2 mg): 50% | fusion on radiographs (animals) (Lewis rats [4]; 2 mg, eight weeks): 4/8 | bilateral fusion on radiographs (animals) (Lewis rats [4]; 2 mg): 3/8 | Fusion Mass Bone Volume (Lewis rats [4]; 2 mg, 8 weeks): 21.217 mm^3 | Fusion Mass Bone Volume to Tissue Volume (Lewis rats [4]; 2 mg, 8 weeks): 27.104% | Fusion Mass Total Tissue Volume (Lewis rats [4]; 2 mg, 8 weeks): 78.586 mm^3 | Fusion Mass Trabecular Separation (Lewis rats [4]; 2 mg, 8 weeks): 321.693 μm | trabecular thickness per footnote (Lewis rats [4]; 2 mg, 8 weeks): 134.008 | bilateral fusion, manual assessment (animals) (Lewis rats [4]; 20 mg, 8 weeks): 6/7 | Fusion Rates, Manual Palpation (Lewis rats [4]; 20 mg): 86% | Fusion Rates, Micro-CT (Lewis rats [4]; 20 mg): 100% | Fusion Rates, X-ray (Lewis rats [4]; 20 mg): 100% | bilateral fusion on radiographs (animals) (Lewis rats [4]; 20 mg): 6/7 | Fusion Mass Bone Volume (Lewis rats [4]; 20 mg, 8 weeks): 19.592 mm^3 | Fusion Mass Bone Volume to Tissue Volume (Lewis rats [4]; 20 mg, 8 weeks): 24.565% | Fusion Mass Total Tissue Volume (Lewis rats [4]; 20 mg, 8 weeks): 79.934 mm^3 | Fusion Mass Trabecular Separation (Lewis rats [4]; 20 mg, 8 weeks): 310.912 μm | trabecular thickness per footnote (Lewis rats [4]; 20 mg, 8 weeks): 124.737 | EC50 ([1]; Mus musculus, 96 h): ~500 nM | EC50 ([2]; Mus musculus, M210B4, 96 h, read-out: EC50 for inducing ALP activity): ~440 nM | BSP expression increase ([5]; 2 and 4 weeks): 4 fold | OCN expression induction ([5]; 4 weeks): 2 fold | OSX expression induction ([5]; 4 weeks): 3 fold | BSP expression increase ([5]; one week): 2 fold | Gli-dependent reporter activity induction ([6]; 100 nM): 5 fold | Gli-dependent reporter activity induction ([6]; 1 μM): 17 fold

CC(C)CCC[C@](C)(O)[C@H]1CC[C@H]2[C@@H]3CC=C4C[C@@H](O)CC[C@]4(C)[C@H]3CC[C@@]21C [Oxy 20S, 20(S)-hydroxycholesterol]
amount of YFP-Smo captured on 20S-coupled beads (Smoothened (YFP-Smo)): reduced the amount of YFP-Smo captured
